In US9499550B2 (BRISTOL-MYERS SQUIBB COMPANY, priority 2012, dated 2016) one finds EC50 data, which are given here for nine compounds.

Read-outs that look alike come from different tables or passages of the source.

Experiment [1] has as its system HCV genotype 1b (Con1) replicon in HUH-7 cells. Description: HCV replicon luciferase reporter assay, genotype 1b. Type of experiment: cell-based. Particulars: HCV genotype 1b replicon luciferase, 3 days incubation. The method, boiled down:
(§1)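 Replicon inhibition for both genotypes was measured as Renilla luciferase signal (EnduRen, 7.5 μM final, 2 h) after 3-day, 37° C exposure of replicon-bearing HUH-7 cells in 4% FCS DMEM, 0.5% DMSO. The 1b construct carries S1179I; the 1a H77 construct carries P1496L and S2204I. Twenty-point, 3-fold dilutions were fitted four-parametrically for EC50, and CC50 was taken from multiplexed Cell Titer-Blue.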

Experiment [2] concerns HCV genotype 1a (H77 strain) replicon in HUH-7 cells. In words: HCV replicon luciferase reporter assay, genotype 1a. Type of experiment: cell-based. Particulars: HCV genotype 1a replicon luciferase, 3 days incubation. The method, boiled down: as §1
On the technique in general: Replicon systems follow genome replication, usually without infectious particles.

Setting [3] is: Hepatitis C virus, Huh-7, 72 h, read-out: LE_1b (EC50, range).
[4] abbreviates: Hepatitis C virus, Huh-7, 72 h, read-out: LE_1a (EC50, range).

On to `CC[C@@H]1C[C@H](C)CC/C=C\[C@@H]2C[C@@]2(C(=O)NS(=O)(=O)C2CC2)NC(=O)[C@@H]2C[C@@H](Oc3nccc4c5c(ccc34)N(C)CCO5)CN2C(=O)[C@H]1NC(=O)O[C@@H]1C[C@@H]2C[C@@H]2C1` [Compound 5314, (1R,3r,5S)-bicyclo[3.1.0]hexan-3-yl((2R,6S,7R,9R,13aS,14aR,16aS,Z)-14a-((cyclopropylsulfonyl)carbamoyl)-7-ethyl-9-methyl-2-((4-methyl-3,4-dihydro-2H-[1,4]oxazino[2,3-f]isoquinolin-7-yl)oxy)-5,16-dioxo-1,2,3,5,6,7,8,9,10,11,13a,14,14a,15,16,16a-hexadecahydrocyclopropa[e]pyrrolo[1,2-a][1,4]diazacyclopentadecin-6-yl)carbamate], for which the EC50 was 1.06 nM in experiment [1] (Hepatitis C virus, Huh-7, 72 h, read-out: LE_1b (EC50)); below 5.46 nM in experiment [1] (setting [3]); 1.59 nM in experiment [2] (Hepatitis C virus, Huh-7, 72 h, read-out: LE_1a (EC50)); below 5.46 nM in experiment [2] (setting [4]).
For the compound `CC[C@@H]1C[C@@H](C)CC/C=C\[C@@H]2C[C@@]2(C(=O)NS(=O)(=O)C2CC2)NC(=O)[C@@H]2C[C@@H](Oc3nccc4c5c(ccc34)N(C)CCO5)CN2C(=O)[C@H]1NC(=O)NC(C)(C)C` [Compound 5315, (2R,6S,7R,9S,13aS,14aR,16aS,Z)-6-(3-(tert-butyl)ureido)-N-(cyclopropylsulfonyl)-7-ethyl-9-methyl-2-((4-methyl-3,4-dihydro-2H-[1,4]oxazino[2,3-f]isoquinolin-7-yl)oxy)-5,16-dioxo-1,2,3,5,6,7,8,9,10,11,13a,14,14a,15,16,16a-hexadecahydrocyclopropa[e]pyrrolo[1,2-a][1,4]diazacyclopentadecine-14a-carboxamide], the EC50 in experiment [1] (setting [3]) and in experiment [2] (setting [4]) was 4.82 to 103 nM in each case.
Turning to `CC[C@@H]1C[C@H](C)CC/C=C\[C@@H]2C[C@@]2(C(=O)NS(=O)(=O)C2CC2)NC(=O)[C@@H]2C[C@@H](Oc3nccc4c5c(ccc34)N(C)CCO5)CN2C(=O)[C@H]1NC(=O)NC(C)(C)C` [Compound 5316, (2R,6S,7R,9R,13aS,14aR,16aS,Z)-6-(3-(tert-butyl)ureido)-N-(cyclopropylsulfonyl)-7-ethyl-9-methyl-2-((4-methyl-3,4-dihydro-2H-[1,4]oxazino[2,3-f]isoquinolin-7-yl)oxy)-5,16-dioxo-1,2,3,5,6,7,8,9,10,11,13a,14,14a,15,16,16a-hexadecahydrocyclopropa[e]pyrrolo[1,2-a][1,4]diazacyclopentadecine-14a-carboxamide], the EC50 in experiment [1] (setting [3]) and in experiment [2] (setting [4]) was below 5.46 nM in each case.
For `CC[C@@H]1C[C@@H](C)CC/C=C\[C@@H]2C[C@@]2(C(=O)NS(=O)(=O)C2CC2)NC(=O)[C@@H]2C[C@@H](Oc3nccc4c5c(ccc34)N(C)CCO5)CN2C(=O)[C@H]1NC(=O)C(=O)N(C)C` [Compound 5317, N1-((2R,6S,7R,9S,13aS,14aR,16aS,Z)-14a-((cyclopropylsulfonyl)carbamoyl)-7-ethyl-9-methyl-2-((4-methyl-3,4-dihydro-2H-[1,4]oxazino[2,3-f]isoquinolin-7-yl)oxy)-5,16-dioxo-1,2,3,5,6,7,8,9,10,11,13a,14,14a,15,16,16a-hexadecahydrocyclopropa[e]pyrrolo[1,2-a][1,4]diazacyclopentadecin-6-yl)-N2,N2-dimethyloxalamide], the EC50 in experiment [1] (setting [3]) and in experiment [2] (setting [4]) was 4.82 to 103 nM throughout.
Regarding `CC[C@@H]1C[C@H](C)CC/C=C\[C@@H]2C[C@@]2(C(=O)NS(=O)(=O)C2CC2)NC(=O)[C@@H]2C[C@@H](Oc3nccc4c5c(ccc34)N(C)CCO5)CN2C(=O)[C@H]1NC(=O)C(=O)N(C)C` [Compound 5318, N1-((2R,6S,7R,9R,13aS,14aR,16aS,Z)-14a-((cyclopropylsulfonyl)carbamoyl)-7-ethyl-9-methyl-2-((4-methyl-3,4-dihydro-2H-[1,4]oxazino[2,3-f]isoquinolin-7-yl)oxy)-5,16-dioxo-1,2,3,5,6,7,8,9,10,11,13a,14,14a,15,16,16a-hexadecahydrocyclopropa[e]pyrrolo[1,2-a][1,4]diazacyclopentadecin-6-yl)-N2,N2-dimethyloxalamide], the EC50 in experiment [1] (setting [3]) and in experiment [2] (setting [4]) was below 5.46 nM throughout.
Take `CC[C@@H]1C[C@@H](C)CC/C=C\[C@@H]2C[C@@]2(C(=O)NS(=O)(=O)C2(CF)CC2)NC(=O)[C@@H]2C[C@@H](Oc3nccc4c5c(ccc34)N(C)CCO5)CN2C(=O)[C@H]1NC(=O)OC(C)(C)C(F)(F)F` [Compound 5319, 1,1,1-trifluoro-2-methylpropan-2-yl((2R,6S,7R,9S,13aS,14aR,16aS,Z)-7-ethyl-14a-(((1-(fluoromethyl)cyclopropyl)sulfonyl)carbamoyl)-9-methyl-2-((4-methyl-3,4-dihydro-2H-[1,4]oxazino[2,3-f]isoquinolin-7-yl)oxy)-5,16-dioxo-1,2,3,5,6,7,8,9,10,11,13a,14,14a,15,16,16a-hexadecahydrocyclopropa[e]pyrrolo[1,2-a][1,4]diazacyclopentadecin-6-yl)carbamate]: the concentration for a half-maximal effect (EC50) in experiment [1] (read-out: LE_1b (EC50)) stood at 14.2 nM; in experiment [2] (read-out: LE_1a (EC50)), 33.6 nM.
`C[C@H]1CC/C=C\[C@@H]2C[C@@]2(C(=O)NS(=O)(=O)C2(CF)CC2)NC(=O)[C@@H]2C[C@@H](Oc3nccc4c5c(ccc34)OCCO5)CN2C(=O)[C@@H](NC(=O)OC(C)(C)C(F)(F)F)[C@H](C)C1` [Compound 5322, 1,1,1-trifluoro-2-methylpropan-2-yl((2R,6S,7R,9S,13aS,14aR,16aS,Z)-2-((2,3-dihydro-[1,4]dioxino[2,3-f]isoquinolin-7-yl)oxy)-14a-(((1-(fluoromethyl)cyclopropyl)sulfonyl)carbamoyl)-7,9-dimethyl-5,16-dioxo-1,2,3,5,6,7,8,9,10,11,13a,14,14a,15,16,16a-hexadecahydrocyclopropa[e]pyrrolo[1,2-a][1,4]diazacyclopentadecin-6-yl)carbamate]: the EC50 in experiment [1] (setting [3]) and in experiment [2] (setting [4]) was below 5.46 nM throughout.
Consider `C[C@@H]1CC/C=C\[C@@H]2C[C@@]2(C(=O)NS(=O)(=O)C2(CF)CC2)NC(=O)[C@@H]2C[C@@H](Oc3nccc4c5c(ccc34)OCCO5)CN2C(=O)[C@@H](NC(=O)OC(C)(C)C(F)(F)F)[C@H](C)C1` [Compound 5323, 1,1,1-trifluoro-2-methylpropan-2-yl((2R,6S,7R,9R,13aS,14aR,16aS,Z)-2-((2,3-dihydro-[1,4]dioxino[2,3-f]isoquinolin-7-yl)oxy)-14a-(((1-(fluoromethyl)cyclopropyl)sulfonyl)carbamoyl)-7,9-dimethyl-5,16-dioxo-1,2,3,5,6,7,8,9,10,11,13a,14,14a,15,16,16a-hexadecahydrocyclopropa[e]pyrrolo[1,2-a][1,4]diazacyclopentadecin-6-yl)carbamate], for which the EC50 in experiment [1] (setting [3]) and in experiment [2] (setting [4]) was below 5.46 nM in each case.
With `CC[C@@H]1C[C@H](C)CC/C=C\[C@@H]2C[C@@]2(C(=O)NS(=O)(=O)C2(C)CC2)NC(=O)[C@@H]2C[C@@H](Oc3nccc4c5c(ccc34)N(C)CCO5)CN2C(=O)[C@H]1NC(=O)OC(C)(C)C(F)(F)F` [Compound 5326, 1,1,1-trifluoro-2-methylpropan-2-yl((2R,6S,7R,9R,13aS,14aR,16aS,Z)-7-ethyl-9-methyl-2-((4-methyl-3,4-dihydro-2H-[1,4]oxazino[2,3-f]isoquinolin-7-yl)oxy)-14a-(((1-methylcyclopropyl)sulfonyl)carbamoyl)-5,16-dioxo-1,2,3,5,6,7,8,9,10,11,13a,14,14a,15,16,16a-hexadecahydrocyclopropa[e]pyrrolo[1,2-a][1,4]diazacyclopentadecin-6-yl)carbamate], the EC50 in experiment [1] (setting [3]) and in experiment [2] (setting [4]) was below 5.46 nM each time.

One may read the EC50 as the concentration giving half of the maximal effect.
